Structures are written as SMILES. Bounds are passed on as bounds.

One may read the IC50 as the concentration that gives 50% inhibition.

This assay has as its target CDK2/Cyclin E1 (Homo sapiens (Human), UniProt P24941). Nature of the assay: CDK2/Cyclin E1 HTRF enzyme activity assay. As to conditions: 1 mM ATP. The class given is biochemical. The procedure:
Assays are conducted in white 384-well polystyrene plates in a final reaction volume of 8 μL. […] HTRF signals are read after 1 hour at room temperature on a PHERAstar FS plate reader (BMG Labtech). Data is analyzed with IDBS XLFit and GraphPad Prism 5.0 software using a three or four parameter dose response curve to determine IC50 for each compound.
The compound `CS(=O)(=O)N1CCCC(Nc2ncc(C(F)(F)F)c(-c3cnn(C4CCOCC4)c3)n2)C1` (racemic) [Example 19, (±)-N-(1-(Methylsulfonyl)piperidin-3-yl)-4-(1-(tetrahydro-2H-pyran-4-yl)-1H-pyrazol-4-yl)-5-(trifluoromethyl)pyrimidin-2-amine] came in with an IC50 of 500 to 1000 nM.
Take `C[C@H]1C[C@H](Nc2ncc(C(F)(F)F)c(-c3cnn(C4CCOCC4)c3)n2)CCN1S(C)(=O)=O` (racemic) [Example 21, (±)-N-((2S,4R)-2-Methyl-1-(methylsulfonyl)piperidin-4-yl)-4-(1-(tetrahydro-2H-pyran-4-yl)-1H-pyrazol-4-yl)-5-(trifluoromethyl)pyrimidin-2-amine]: the IC50 was less than 50 nM.
Regarding `CN1CCC(S(=O)(=O)N2CCC(Nc3ncc(C(F)(F)F)c(-c4cnn(CC(C)(C)O)c4)n3)CC2)C1` (racemic) [Example 86, (±)-2-Methyl-1-(4-(2-((1-((1-methylpyrrolidin-3-yl)sulfonyl)piperidin-4-yl)amino)-5-(trifluoromethyl)pyrimidin-4-yl)-1H-pyrazol-1-yl)propan-2-ol], the IC50 is less than 50 nM.
The compound `CC(O)(Cn1cc(-c2nc(NC3CCN(S(C)(=O)=O)CC3)ncc2C(F)(F)F)cn1)C(F)(F)F` (racemic) [Example 95, (±)-1,1,1-Trifluoro-2-methyl-3-(4-(2-((1-(methylsulfonyl)piperidin-4-yl)amino)-5-(trifluoromethyl)pyrimidin-4-yl)-1H-pyrazol-1-yl) propan-2-ol] had an IC50 of less than 50 nM.
The same measure for `CS(=O)(=O)N1CCC(Nc2ncc(C#N)c(-c3cnn(-c4ccc(CNC5CCN(S(C)(=O)=O)C5)cc4Cl)c3)n2)CC1` (racemic) [Example 198, (±)-4-(1-(2-Chloro-4-(((1-(methylsulfonyl)pyrrolidin-3-yl)amino)methyl)phenyl)-1H-pyrazol-4-yl)-2-((1-(methylsulfonyl)piperidin-4-yl)amino)pyrimidine-5-carbonitrile]: less than 50 nM; for `CCS(=O)(=O)N1CCC(Nc2ncc(C#N)c(-c3cnn(-c4ccc(CN[C@@H]5CCCC[C@@]5(C)O)cc4Cl)c3)n2)CC1` (racemic) [Example 287, (±)-4-(1-(2-Chloro-4-((((1r,2r)-2-hydroxy-2-methylcyclohexyl)amino)methyl)phenyl)-1H-pyrazol-4-yl)-2-((1-(ethylsulfonyl)piperidin-4-yl)amino)pyrimidine-5-carbonitrile]: less than 50 nM.
The same measure for `CN(C)C1CCC(S(=O)(=O)N2CCC(Nc3ncc(C(F)(F)F)c(-c4cnn(CC(C)(C)O)c4)n3)CC2)CC1` (single isomer, unassigned) [88 (peak 1), 1-(4-(2-((1-((4-(Dimethylamino)cyclohexyl)sulfonyl)piperidin-4-yl)amino)-5-(trifluoromethyl)pyrimidin-4-yl)-1H-pyrazol-1-yl)-2-methylpropan-2-ol]: less than 50 nM; for `CN(C)C1CCC(S(=O)(=O)N2CCC(Nc3ncc(C(F)(F)F)c(-c4cnn(CC(C)(C)O)c4)n3)CC2)CC1` (single isomer, unassigned) [88 (peak 2), 1-(4-(2-((1-((4-(Dimethylamino)cyclohexyl)sulfonyl)piperidin-4-yl)amino)-5-(trifluoromethyl)pyrimidin-4-yl)-1H-pyrazol-1-yl)-2-methylpropan-2-ol]: less than 50 nM.
`CCN(CC)C1CCC(S(=O)(=O)N2CCC(Nc3ncc(C(F)(F)F)c(-c4cnn(CC(C)(C)O)c4)n3)CC2)CC1` (single isomer, unassigned) [89 (peak 1), 1-(4-(2-((1-((4-(Diethylamino)cyclohexyl)sulfonyl)piperidin-4-yl)amino)-5-(trifluoromethyl)pyrimidin-4-yl)-1H-pyrazol-1-yl)-2-methylpropan-2-ol] yielded an IC50 of less than 50 nM.
